Assay results taken from patent publication US11149033B2, “Heteroaryl compound, enantiomer, diastereomer or pharmaceutically acceptable salt thereof, and antiviral composition containing same as active ingredient” (priority 2016, dated 2021).

Experiments:
A/Perth/16/2009 (H3N2) = test: Antiviral activity (drug efficacy evaluation by concentration) against A/Perth/16/2009 (H3N2); format: cell-based, A type influenza virus; conditions: Influenza A virus, H3N2; read-out: EC50
[1] = CC50 B/Florida/04/2006, cytotoxicity in the B/Florida/04/2006 assay
[2] = CC50, third EC50/CC50 column pair (c7), beside the EC50 of c6

c1ccc(-c2cccc(CSc3nnc(Cn4cc(-c5ccccc5)cn4)o3)c2)cc1
melting point: 74.1 °C

[O-][S+](Cc1ccccc1-c1ccccc1)c1nnc(Cc2ccc(Br)cc2)o1 (stereo not shown) [Compound 59, 2-(([1,1′-biphenyl]-2-ylmethyl)sulfinyl)-5-(4-bromobenzyl)-1,3,4-oxadiazole]
CC50 (in vitro; [1]): > 50 µM

CN(c1ccc(Br)cc1)c1nnc(SCc2ccccc2-c2ccccc2)o1 [Compound 65, 5-(([1,1′-biphenyl]-2-ylmethyl)thio)-N-(4-bromophenyl)-N-methyl-1,3,4-oxadiazol-2-amine]
CC50 (in vitro; [1]): > 50 µM

CSc1nnc(Cc2ccccc2)o1 [Compound 80, 2-benzyl-5-(methylthio)-1,3,4-oxadiazole]
CC50 (in vitro; [1]): > 50 µM

Brc1ccc(Cc2nnc(-c3ccc4ccccc4c3)o2)cc1 [Compound 98, 2-(4-bromobenzyl)-5-(naphthalen-2-yl)-1,3,4-oxadiazole]
CC50 (in vitro; CC50, beside the EC50 of c2): > 50 µM
CC50 (in vitro; CC50, beside the EC50 of c4): > 50 µM
CC50 (in vitro; [2]): > 50 µM

Cc1ccccc1CSc1ncc(CNc2ccc(Br)cc2)o1 [Compound 99, 4-bromo-N-((2-((2-methylbenzyl)thio)oxazol-5-yl)methyl)aniline]
CC50 (in vitro; CC50, beside the EC50 of c2): > 50 µM
CC50 (in vitro; CC50, beside the EC50 of c4): > 50 µM
CC50 (in vitro; [2]): > 50 µM

CC(C)c1ccc(Cc2nnc(SCc3ccccc3-c3ccccc3)o2)cc1 [Compound 107, 2-(([1,1′-biphenyl]-2-ylmethyl)thio)-5-(4-isopropylbenzyl)-1,3,4-oxadiazole]
EC50 (A/Perth/16/2009 (H3N2)): 20.6 µM
CC50 (in vitro; CC50, beside the EC50 of c2): > 50 µM
CC50 (in vitro; CC50, beside the EC50 of c4): > 50 µM
CC50 (in vitro; [2]): > 50 µM

Cc1ccccc1CCc1nnc(Cc2ccc(F)c(Cl)c2)o1 [Compound 108, 2-(3-chloro-4-fluorobenzyl)-5-(2-methylphenethyl)-1,3,4-oxadiazole]
EC50 (A/Perth/16/2009 (H3N2)): > 50 µM
CC50 (in vitro; CC50, beside the EC50 of c2): > 50 µM
CC50 (in vitro; CC50, beside the EC50 of c4): > 50 µM
CC50 (in vitro; [2]): > 50 µM

CC(C)c1ccccc1/C=C/c1nnc(Cc2ccc(-c3ccccc3)cc2)o1 [Compound 142, 2-([1,1′-biphenyl]-4-ylmethyl)-5-(2-isopropylstyryl)-1,3,4-oxadiazole]
CC50 (in vitro; CC50, beside the EC50 of c2): > 50 µM
CC50 (in vitro; CC50, beside the EC50 of c4): > 50 µM
CC50 (in vitro; [2]): > 50 µM

Fc1ccc(Oc2ccccc2/C=C/c2nnc(Cc3ccc(Br)cc3)o2)cc1 [Compound 155, 2-(4-bromobenzyl)-5-(2-(4-fluorophenoxy)styryl)-1,3,4-oxadiazole]
CC50 (in vitro; CC50, beside the EC50 of c2): > 50 µM
CC50 (in vitro; CC50, beside the EC50 of c4): > 50 µM
CC50 (in vitro; [2]): > 50 µM

Cc1cc(F)ccc1/C=C/c1nnc(Cc2cccc(Br)c2)o1 [Compound 186, 2-(3-bromobenzyl)-5-(4-fluoro-2-methylstyryl)-1,3,4-oxadiazole]
CC50 (in vitro; CC50, beside the EC50 of c2): > 50 µM
CC50 (in vitro; CC50, beside the EC50 of c4): > 50 µM
CC50 (in vitro; [2]): > 50 µM

CC(C)c1ccccc1/C=C/c1nnc(Cc2ccccc2)o1 [Compound 196, 2-benzyl-5-(2-isopropylstyryl)-1,3,4-oxadiazole]
CC50 (in vitro; CC50, beside the EC50 of c2): > 50 µM
CC50 (in vitro; CC50, beside the EC50 of c4): > 50 µM
CC50 (in vitro; [2]): > 50 µM

Cc1nc2ccccc2n1Cc1nnc(/C=C/c2ccc(F)cc2Cl)o1 [Compound 203, (E)-2-(2-chloro-4-fluorostyryl)-5-((2-methyl-1H-benzo[d]imidazol-1-yl)methyl)-1,3,4-oxadiazole]
EC50 (A/Perth/16/2009 (H3N2)): 15.4 µM
CC50 (in vitro; CC50, beside the EC50 of c2): > 50 µM
CC50 (in vitro; CC50, beside the EC50 of c4): > 50 µM
CC50 (in vitro; [2]): > 50 µM

Cc1cccc(Cc2nnc(/C=C/c3ccc(F)cc3Cl)o2)c1 [Compound 211, 2-(2-chloro-4-fluorostyryl)-5-(3-methylbenzyl)-1,3,4-oxadiazole]
melting point: 100.5 °C

Cn1cc(Cc2nnc(/C=C/c3ccc(F)cc3Cl)o2)c2ccccc21 [Compound 213, 2-(2-chloro-4-fluorostyryl)-5-((1-methyl-1H-indol-3-yl)methyl)-1,3,4-oxadiazole]
melting point: 148.1 °C

Fc1ccc(/C=C/c2nnc(Cc3cccc(Br)c3)o2)c(Br)c1 [Compound 215, 2-(2-bromo-4-fluorostyryl)-5-(3-bromobenzyl)-1,3,4-oxadiazole]
melting point: 129.5 °C

CN(C)c1cccc(Cc2nnc(/C=C/c3ccc(F)cc3Cl)o2)c1 [Compound 217, 3-((5-(2-chloro-4-fluorostyryl)-1,3,4-oxadiazol-2-yl)methyl)-N,N-dimethylaniline]
melting point: 134.2 °C

Oc1ccccc1/C=C/c1nnc(Cc2cccc(Br)c2)o1 [Compound 218, 2-(2-(5-(3-bromobenzyl)-1,3,4-oxadiazol-2-yl)vinyl)phenol]
melting point: 179.9 °C

Fc1ccc(/C=C/c2nnc(Cc3cccc(Cl)n3)o2)c(Cl)c1 [Compound 219, 2-(2-chloro-4-fluorostyryl)-5-((6-chloropyridin-2-yl)methyl)-1,3,4-oxadiazole]
melting point: 145.2 °C

Cc1cccc(Cc2nnc(/C=C/c3ccc(F)cc3Cl)o2)c1C [Compound 221, 2-(2-chloro-4-fluorostyryl)-5-(2,3-dimethylbenzyl)-1,3,4-oxadiazole]
melting point: 139.3 °C

Fc1ccc(/C=C/c2nnc(Cc3ccccc3Br)o2)c(Cl)c1 [Compound 222, 2-(2-bromobenzyl)-5-(2-chloro-4-fluorostyryl)-1,3,4-oxadiazole]
melting point: 155.2 °C

Fc1ccc(/C=C/c2nnc(CCc3cccc(Br)c3)o2)c(Cl)c1 [Compound 223, 2-(3-bromophenethyl)-5-(2-chloro-4-fluorostyryl)-1,3,4-oxadiazole]
melting point: 108.7 °C

Clc1ncccc1/C=C/c1nnc(Cc2cccc(Br)c2)o1 [Compound 225, 2-(3-bromobenzyl)-5-(2-(2-chloropyridin-3-yl)vinyl)-1,3,4-oxadiazole]
melting point: 162.5 °C

Fc1cccc(Cc2nnc(/C=C/c3ccc(F)cc3Cl)o2)c1 [Compound 226, 2-(2-chloro-4-fluorostyryl)-5-(3-fluorobenzyl)-1,3,4-oxadiazole]
melting point: 132.5 °C

Fc1ccc(/C=C/c2nnc(Cc3cccc4cccnc34)o2)c(Cl)c1 [Compound 236, 2-(2-chloro-4-fluorostyryl)-5-(quinolin-8-ylmethyl)-1,3,4-oxadiazole]
melting point: 171.9 °C

Fc1ccc(/C=C/c2nnc(Cc3nccc4ccccc34)o2)c(Cl)c1 [Compound 237, 2-(2-chloro-4-fluorostyryl)-5-(isoquinolin-1-ylmethyl)-1,3,4-oxadiazole]
melting point: 171.4 °C

Fc1ccc(/C=C/c2nnc(Cc3cncc4ccccc34)o2)c(Cl)c1 [Compound 238, 2-(2-chloro-4-fluorostyryl)-5-(isoquinolin-4-ylmethyl)-1,3,4-oxadiazole]
melting point: 171.3 °C

COC(=O)c1ccccc1/C=C/c1nnc(Cc2cccc(Br)c2)o1 [Compound 242, methyl-2-(2-(5-(3-bromobenzyl)-1,3,4-oxadiazol-2-yl)vinyl)benzoate]
melting point: 131.1 °C

O=C(O)c1ccccc1/C=C/c1nnc(Cc2cccc(Br)c2)o1 [Compound 243, 2-(2-(5-(3-bromobenzyl)-1,3,4-oxadiazol-2-yl)vinyl)benzoic acid]
melting point: 167.7 °C

O=C(Nc1ccc(F)cc1Cl)c1nnc(Cc2cccc(Br)c2)o1 [Compound 244, 5-(3-bromobenzyl)-N-(2-chloro-4-fluorophenyl)-1,3,4-oxadiazole-2-carboxamide]
melting point: 165.8 °C

Fc1cc(F)c(/C=C/c2nnc(Cc3cccc(Br)c3)o2)c(Cl)c1 [Compound 245, 2-(3-bromobenzyl)-5-(2-chloro-4,6-difluorostyryl)-1,3,4-oxadiazole]
melting point: 112 °C

O=C(Nc1cccc(Br)c1)c1nnc(/C=C/c2ccc(F)cc2Cl)o1 [Compound 253, N-(3-bromophenyl)-5-(2-chloro-4-fluorostyryl)-1,3,4-oxadiazole-2-carboxamide]
melting point: 254.2 °C

Cc1cc(F)cc(Cc2nnc(/C=C/c3ccc(F)cc3Cl)o2)c1 [Compound 255, 2-(2-chloro-4-fluorostyryl)-5-(3-fluoro-5-methylbenzyl)-1,3,4-oxadiazole]
melting point: 117 °C

FC(F)(F)Oc1ccccc1/C=C/c1nnc(Cc2cccc(Br)c2)o1 [Compound 256, 2-(3-bromobenzyl)-5-(2-(trifluoromethoxy)styryl)-1,3,4-oxadiazole]
melting point: 103.6 °C

Fc1ccc(/C=C/c2nnc(Cc3cc(Br)ccc3F)o2)c(Cl)c1 [Compound 258, 2-(5-bromo-2-fluorobenzyl)-5-(2-chloro-4-fluorostyryl)-1,3,4-oxadiazole]
melting point: 156.6 °C

Cc1ccc(Cc2nnc(/C=C/c3ccc(F)cc3F)o2)cc1Br [Compound 262, 2-(3-bromo-4-methylbenzyl)-5-(2,4-difluorostyryl)-1,3,4-oxadiazole]
melting point: 132 °C

Fc1ccc(/C=C/c2nnc(Cc3ccc(F)c(Br)c3)o2)c(F)c1 [Compound 263, 2-(3-bromo-4-fluorobenzyl)-5-(2,4-difluorostyryl)-1,3,4-oxadiazole]
melting point: 115 °C

Fc1ccc(/C=C/c2nnc(Cc3cccc(Br)c3)o2)c(C(F)(F)F)c1 [Compound 264, 2-(3-bromobenzyl)-5-(4-fluoro-2-(trifluoromethyl)styryl)-1,3,4-oxadiazole]
melting point: 137.3 °C

Cc1ccc(Cc2nnc(/C=C/c3ccc(F)cc3Br)o2)cc1Br [Compound 265, 2-(2-bromo-4-fluorostyryl)-5-(3-bromo-4-methylbenzyl)-1,3,4-oxadiazole]
melting point: 152.6 °C

Fc1ccc(/C=C/c2nnc(Cc3ccc(F)c(Br)c3)o2)c(Br)c1 [Compound 266, 2-(3-bromo-4-fluorobenzyl)-5-(2-bromo-4-fluorostyryl)-1,3,4-oxadiazole]
melting point: 124.9 °C

Fc1ccc(/C=C/c2nnc(Cc3cccc(C4CC4)c3)o2)c(Cl)c1 [Compound 267, 2-(2-chloro-4-fluorostyryl)-5-(3-cyclopropylbenzyl)-1,3,4-oxadiazole]
melting point: 110.2 °C

Fc1cccc(/C=C/c2nnc(Cc3cccc(Br)c3)o2)c1F [Compound 280, 2-(3-bromobenzyl)-5-(2,3-difluorostyryl)-1,3,4-oxadiazole]
melting point: 97.4 °C

FC(F)(F)c1ccccc1/C=C/c1nnc(Cc2cccc(Br)c2)o1 [Compound 281, 2-(3-bromobenzyl)-5-(2-(trifluoromethyl)styryl)-1,3,4-oxadiazole]
melting point: 107.2 °C
